Test results as given in patent publication US9340577B2, “HLA binding motifs and peptides and their uses” (priority 1992, dated 2016).
pIC50: −log10 of the molar value. Where two headings read alike, the source gives them in different places. No end group written: not given here.

How the values were obtained:
Assay in all cases: biochemical
Type in all cases: binding
DR1 (DRB1*0101) = DR1 (DRB1*0101) (Homo sapiens, UniProt P01903+P01911, A100R/D57E/F55L/F60I/F76Y/I96L/L162R/M171V/P40L/Q125E/R42F/V115G/Y59C)
HLA-A3.2 (A*0301) = HLA-A3.2 (A*0301) (Homo sapiens, UniProt P04439)
HLA-A11 (A*1101) = HLA-A11 (A*1101) (Homo sapiens, UniProt P04439, A114D/D185E/E176A/F33Y/L180Q/S129P/T187R)
A31 (A*3101) = A31 (A*3101) (Homo sapiens, UniProt P04439, A270S/D185E/E176V/E277Q/F33T/G231S/G80R/H175R/I121M/I218V/I322F/K168Q/L300P/L318F/M331R/P217A/Q94H/R138Q/T323A/T345S/T97I/V358M)
A*3301 = A*3301 (Homo sapiens, UniProt P04439, A270S/D185E/E176V/E277Q/E87N/F33T/G231S/H175R/I121M/I218V/I322F/K168Q/K210R/L300P/L318F/M331R/P217A/Q86R/Q94H/R138Q/T323A/T345S/T97I/V358M/Y195H)
A*6801 = A*6801 (Homo sapiens, UniProt P04439, A269V/D185E/E176V/E277Q/E87N/F33Y/G231S/I121M/I166T/I218V/L180W/L300P/L318F/N151K/P208A/P217A/Q86R/R169H/T345S)

Substance	pIC50 (DR1 (DRB1*0101))	pIC50 (DR1 (DRB1*0101); read-out: DRB1*0101)	pIC50 (HLA-A3.2 (A*0301))	pIC50 (HLA-A11 (A*1101))	pIC50 (A31 (A*3101))	pIC50 (A*3301)	pIC50 (A*6801)
DMKLRLVASPETHLD [Peptide 9014.0123]	7.55						
DMKLRLIASPETHLD [Peptide 9014.0118]	7.92						
DMKLRLNASPETHLD [Peptide 9014.0120]	6.04						
QNFIQNDTGFYTLHV [Peptide 9014.0071]	6.17						
ETEWVEPLTPSGAMP [Peptide 9014.0147]	7.62						
ETEVVEPLTPSGAMP [Peptide 9014.0146]	7.40						
GTDMKLRLHASPETH [Peptide 9014.0098]	6.08						
ETELVEPLLPSGAMP [Peptide 9014.0153]	6.47						
ITDIGLARLLDIDET [Peptide 9014.0177]	6.04						
KIFGSLLFLPESFDGDPA [Peptide 9014.0241]	6.36						
KIFGSLNFLPESFDGDPA [Peptide 9014.0242]	6.65						
CWMIDSETRPRFREL [Peptide 9014.0226]	6.43						
KEILDEAYLMAGVGS [Peptide 9014.0170]	6.01						
KVFGSLAFLPESFDGDPA [Peptide 9014.0235]	6.17						
730.12 (Ac-AAAKATAAAAAA; also: non-natural residue (10)) [Peptide 730.12]		5.30					
ETEIVEPLTPSGAMP [Peptide 9014.0144]	6.32						

Substance	pIC50 (DR1 (DRB1*0101))	pIC50 (DR1 (DRB1*0101); read-out: DRB1*0101)	pIC50 (HLA-A3.2 (A*0301))	pIC50 (HLA-A11 (A*1101))	pIC50 (A31 (A*3101))	pIC50 (A*3301)	pIC50 (A*6801)
KLFGSLAFLPESFDGDPA [Peptide 9014.0234]	6.10						
CWMIDSESRPRFREL [Peptide 9014.0225]	6.34						
DMKLRLPAIPETHLD [Peptide 9014.0135]	6.12						
KIDWLIKRIR [Peptide 9017.0248]			5.06	5.06	7.72	5.17	< 4.70
TTTYSPALNK [Peptide 1556.41]			6.99	8.60	< 4.70	< 4.70	7.74
CTYSPALNR [Peptide 1556.42]			7.57	8.02	7.77	8.07	7.72
SVYGETLEK [Peptide 78.0291]			6.46	6.78	< 4.70	< 4.70	5.58
FIHFRIGCR [Peptide 9017.0112]			6.00	5.15	7.21	7.89	7.17
AIVVWTIAY [Peptide 9017.0115]			6.92	8.04	5.50	5.28	5.14
AQVLHLLKRK [Peptide 1587.52]			6.47	6.51	4.74	< 4.70	< 4.70
RVLQGLPREK [Peptide 9012.0238]			7.42	7.46	7.06	< 4.70	4.84
YGFRLGFLK [Peptide 1556.27]			7.39	9.00	6.65	6.08	7.80
QQLLFIHFR [Peptide 9017.0111]			5.75	8.32	8.70	7.39	7.77
ATLESITKK [Peptide 78.0300]			7.25	7.74	5.50	< 4.70	5.71
GTVFGILIKR [Peptide 9012.0243]			5.59	7.57	7.34	5.50	7.74
YQNFQNADK [Peptide 99.0371]			5.57	6.75	4.35	< 4.73	4.70
